Patent publication US9458153B2, “Dihydroquinolizinones for the treatment and prophylaxis of hepatitis B virus infection” (Hoffmann-La Roche Inc., priority 2014, dated 2016)
pIC50: −log10 of the molar value.

Tested on: HBsAg
Test: HBsAg assay (chemiluminescence immunoassay of secreted HBsAg in HepG2.2.15 culture supernatant)
Type: cell-based, HBV
Details: HBsAg secretion reduced by 50% vs no drug control; HepG2.2.15 cells; CLIA kit
Method: HepG2.2.15 cells (Acs et al. Proc Natl Acad Sci USA, 84, (1987), 4641-4), a constitutively HBV-expressing cell line were cultured in DMEM+Glutamax-I medium (Invitrogen, Carlsbad, Calif., USA), supplemented with 10% fetal bovine serum (Invitrogen) and G418 (Invitrogen) at a final concentration of 200 mg/L and maintained in 5% CO2 at 37° C.
HepG2.2.15 cells were seeded in duplicate into white, 96-well plates at 1.5×10^4 cells/well. The cells were treated with a three-fold serial dilution series of the compounds in DMSO. The final DMSO concentration in all wells was 1% and DMSO was used as no drug control.
The HBsAg chemiluminescence immunoassay (CLIA) kit (Autobio Diagnostics Co., Zhengzhou, China, Catalog number: CL0310-2) was used to measure the levels of secreted HBV antigens semi-quantitatively. For the detection 50 μL/well culture supernatant was used and HBsAg was quantified using HBsAg chemiluminescence immunoassay (CLIA) kit (Autobio Diagnostics Co., Zhengzhou, China, Catalog number: CL0310-2), 50 μL of the supernatant was transferred to the CLIA assay plate and 50 μL of enzyme conjugate reagent was added into each well. The plates were sealed and gently agitated for 1 hour at room temperature. The supernatant-enzyme-mixture was discarded and wells were washed 6 times with 300 μL of PBS. The residual liquid was removed by plating the CLIA plate right side down on absorbent tissue paper. 25 μL of substrates A and B were added to each well. Luminance was measured using a luminometer (Mithras LB 940 Multimode Microplate Reader) after 10 minutes incubation. Dose-response curves were generated and the IC50 value was extrapolated by using the E-WorkBook Suite (ID Business Solutions Ltd., Guildford, UK).
The compounds of the present invention were tested for their capacity to inhibit HBsAg as described herein.

Structure (SMILES) | pIC50
COc1cc2c(cc1OCCCS(C)(=O)=O)CC(C(C)(C)C)n1cc(C(=O)O)c(=O)cc1-2 (single isomer, unassigned; (+)) [Example 187, (+)-6-tert-butyl-10-methoxy-9-(3-methylsulfonylpropoxy)-2-oxo-6,7-dihydrobenzo[a]quinolizine-3-carboxylic acid] | 7.89
COc1cc2c(cc1OCCCN1CCOCC1)CC(C(C)(C)C)n1cc(C(=O)O)c(=O)cc1-2 (single isomer, unassigned; (+)) [Example 193, (+)-6-tert-butyl-10-methoxy-9-(3-morpholinopropoxy)-2-oxo-6,7-dihydrobenzo[a]quinolizine-3-carboxylic acid] | 8.52
COCCCOc1cc2c(cc1OC)-c1cc(=O)c(C(=O)O)cn1C(CC(F)(F)F)C2 (single isomer, unassigned; (+)) [Example 200, (+)-10-methoxy-9-(3-methoxypropoxy)-2-oxo-6-(2,2,2-trifluoroethyl)-6,7-dihydrobenzo[a]quinolizine-3-carboxylic acid] | 7.62
COCCCOc1cc2c(cc1Cl)-c1cc(=O)c(C(=O)O)cn1C(C(C)(C)C)C2 (single isomer, unassigned; (+)) [Example 203, (+)-6-tert-butyl-10-chloro-9-(3-methoxypropoxy)-2-oxo-6,7-dihydrobenzo[a]quinolizine-3-carboxylic acid] | 9.52
COCCCOc1cc2c(c(F)c1F)-c1cc(=O)c(C(=O)O)cn1C(C(C)C)C2 (single isomer, unassigned; (+)) [Example 214, (+)-10,11-difluoro-6-isopropyl-9-(3-methoxypropoxy)-2-oxo-6,7-dihydrobenzo[a]quinolizine-3-carboxylic acid] | 7.82
CCOc1cc2c(cc1OCC)-c1cc(=O)c(C(=O)O)cn1C(CC)C2 (single isomer, unassigned; (-)) [Example 7, (−)-9,10-diethoxy-6-ethyl-2-oxo-6,7-dihydrobenzo[a]quinolizine-3-carboxylic acid] | 5.72
CCC1Cc2cc(OCc3ccccc3)c(OC)cc2-c2cc(=O)c(C(=O)O)cn21 (single isomer, unassigned; (-)) [Example 10, (−)-9-benzyloxy-6-ethyl-10-methoxy-2-oxo-6,7-dihydrobenzo[a]quinolizine-3-carboxylic acid] | 5.91
CCC1Cc2cc(OCC(F)(F)F)c(OC)cc2-c2cc(=O)c(C(=O)O)cn21 (single isomer, unassigned; (-)) [Example 12, (−)-6-ethyl-10-methoxy-2-oxo-9-(2,2,2-trifluoroethoxy)-6,7-dihydrobenzo[a]quinolizine-3-carboxylic acid] | 5.28
CCC1Cc2cc(OCC(C)(C)CO)c(OC)cc2-c2cc(=O)c(C(=O)O)cn21 (single isomer, unassigned; (-)) [Example 24, (−)-6-ethyl-9-(3-hydroxy-2,2-dimethyl-propoxy)-10-methoxy-2-oxo-6,7-dihydrobenzo[a]quinolizine-3-carboxylic acid] | 5.87
CCC1Cc2cc(OCCOC)c(OC)cc2-c2cc(=O)c(C(=O)O)cn21 (single isomer, unassigned; (-)) [Example 29, (−)-6-ethyl-10-methoxy-9-(2-methoxyethoxy)-2-oxo-6,7-dihydrobenzo[a]quinolizine-3-carboxylic acid] | 5.71
CCC1Cc2cc(OCC3CC3)c(OC)cc2-c2cc(=O)c(C(=O)O)cn21 (single isomer, unassigned; (-)) [Example 32, (−)-9-(cyclopropylmethoxy)-6-ethyl-10-methoxy-2-oxo-6,7-dihydrobenzo[a]quinolizine-3-carboxylic acid] | 7.12
CCC1Cc2cc(OCC(C)C)c(OC)cc2-c2cc(=O)c(C(=O)O)cn21 (single isomer, unassigned; (-)) [Example 35, (−)-6-ethyl-9-isobutoxy-10-methoxy-2-oxo-6,7-dihydrobenzo[a]quinolizine-3-carboxylic acid] | 5.86
CCOc1cc2c(cc1OC)-c1cc(=O)c(C(=O)O)cn1C(CC)C2 (single isomer, unassigned; (-)) [Example 38, (−)-9-ethoxy-6-ethyl-10-methoxy-2-oxo-6,7-dihydrobenzo[a]quinolizine-3-carboxylic acid] | 5.74
CCC1Cc2cc(OCCCOC)c(OC)cc2-c2cc(=O)c(C(=O)O)cn21 (single isomer, unassigned; (-)) [Example 41, (−)-6-ethyl-10-methoxy-9-(3-methoxypropoxy)-2-oxo-6,7-dihydrobenzo[a]quinolizine-3-carboxylic acid] | 5.24
CCOCCOc1cc2c(cc1OC)-c1cc(=O)c(C(=O)O)cn1C(CC)C2 (single isomer, unassigned; (-)) [Example 44, (−)-9-(2-ethoxyethoxy)-6-ethyl-10-methoxy-2-oxo-6,7-dihydrobenzo[a]quinolizine-3-carboxylic acid] | 5.26
CCC1Cc2cc(OCC(F)F)c(OC)cc2-c2cc(=O)c(C(=O)O)cn21 (single isomer, unassigned; (-)) [Example 47, (−)-9-(2,2-difluoroethoxy)-6-ethyl-10-methoxy-2-oxo-6,7-dihydrobenzo[a]quinolizine-3-carboxylic acid] | 5.47
CCC1Cc2cc(OCC3CCOCC3)c(OC)cc2-c2cc(=O)c(C(=O)O)cn21 (single isomer, unassigned; (-)) [Example 50, (−)-6-ethyl-10-methoxy-2-oxo-9-(tetrahydropyran-4-ylmethoxy)-6,7-dihydrobenzo[a]quinolizine-3-carboxylic acid] | 6.40
COc1cc2c(cc1OC)-c1cc(=O)c(C(=O)O)cn1C(C)C2 (single isomer, unassigned; (-)) [Example 68, (−)-9,10-dimethoxy-6-methyl-2-oxo-6,7-dihydrobenzo[a]quinolizine-3-carboxylic acid] | 5.25
CCCOc1cc2c(cc1OC)-c1cc(=O)c(C(=O)O)cn1C(CC)C2 (single isomer, unassigned; (-)) [Example 80, (−)-6-ethyl-10-methoxy-2-oxo-9-propoxyl-6,7-dihydrobenzo[a]quinolizine-3-carboxylic acid] | 6.72
CCC1Cc2cc(OC)c(C3CC3)cc2-c2cc(=O)c(C(=O)O)cn21 (single isomer, unassigned; (-)) [Example 91, (−)-10-cyclopropyl-6-ethyl-9-methoxy-2-oxo-6,7-dihydrobenzo[a]quinolizine-3-carboxylic acid] | 6.30
COc1cc2c(cc1OC)-c1cc(=O)c(C(=O)O)cn1C(C(C)C)C2 (single isomer, unassigned; (-)) [Example 100, (−)-6-isopropyl-9,10-dimethoxy-2-oxo-6,7-dihydrobenzo[a]quinolizine-3-carboxylic acid] | 5.27
COc1cc2c(cc1OC)-c1cc(=O)c(C(=O)O)cn1C(CC(C)C)C2 (single isomer, unassigned; (-)) [Example 103, (−)-6-isobutyl-9,10-dimethoxy-2-oxo-6,7-dihydrobenzo[a]quinolizine-3-carboxylic acid] | 5.47
COCCOc1cc2c(cc1Cl)-c1cc(=O)c(C(=O)O)cn1C(CC(C)C)C2 (single isomer, unassigned; (-)) [Example 106, (−)-10-chloro-6-isobutyl-9-(2-methoxyethoxy)-2-oxo-6,7-dihydrobenzo[a]quinolizine-3-carboxylic acid] | 5.14
COCCOc1cc2c(cc1Cl)-c1cc(=O)c(C(=O)O)cn1C(C(C)C)C2 (single isomer, unassigned; (-)) [Example 109, (−)-10-chloro-6-isopropyl-9-(2-methoxyethoxy)-2-oxo-6,7-dihydrobenzo[a]quinolizine-3-carboxylic acid] | 7.21
CCC1Cc2cc(OCc3ccccc3)c(C)cc2-c2cc(=O)c(C(=O)O)cn21 (single isomer, unassigned; (-)) [Example 117, (−)-9-benzyloxy-6-ethyl-10-methyl-2-oxo-6,7-dihydrobenzo[a]quinolizine-3-carboxylic acid] | 6.04
COCCCOc1cc2c(cc1Cl)-c1cc(=O)c(C(=O)O)cn1C(C(C)C)C2 (single isomer, unassigned; (-)) [Example 122, (−)-10-chloro-6-isopropyl-9-(3-methoxypropoxy)-2-oxo-6,7-dihydrobenzo[a]quinolizine-3-carboxylic acid] | 6.16
COc1cc2c(cc1OCC(F)(F)F)CC(C(C)C)n1cc(C(=O)O)c(=O)cc1-2 (single isomer, unassigned; (-)) [Example 128, (−)-6-isopropyl-10-methoxy-2-oxo-9-(2,2,2-trifluoroethoxy)-6,7-dihydrobenzo[a]quinolizine-3-carboxylic acid] | 6.17
COCCOc1cc2c(cc1OC)-c1cc(=O)c(C(=O)O)cn1C(C(C)C)C2 (single isomer, unassigned; (-)) [Example 130, (−)-6-isopropyl-10-methoxy-9-(2-methoxyethoxy)-2-oxo-6,7-dihydrobenzo[a]quinolizine-3-carboxylic acid] | 5.81
